Patent publication US6492381B1, “Tricyclic carbamate compounds useful for inhibition of G-protein function and for treatment of proliferative diseases” (Schering Corp., priority 1993, dated 2002)
Read-outs that look alike come from different tables or passages of the source.

Assays:
[1] = test system: T24-BAG4 human bladder carcinoma cells expressing an activated H-ras gene; test: Cell Mat assay: inhibition of tumor cell growth; assay type: cell-based; conditions: for IC50: tIC50
Method: (§1) Normal human HEPM fibroblasts were planted in 3.5 cm dishes at a density of 5×10^4 cells/dish in 2 ml growth medium, and incubated for 3-5 d to achieve confluence. Medium was aspirated from each dish and the indicator tumor cells, T24-BAG4 human bladder carcinoma cells expressing an activated H-ras gene, were planted on top of the fibroblast monolayer at a density of 2×10^3cells/dish in 2 ml growth medium, and allowed to attach overnight. Compound-induced colony inhibition was assayed by addition of serial dilutions of compound directly to the growth medium 24 h after tumor cell planting, and incubating cells for an additional 14 d to allow colony formation. Assays were terminated by rinsing monolayers twice with phosphate-buffered saline (PBS), fixing the monolayers with a 1% glutaraldehyde solution in PBS, then visualizing tumor cells by staining with X-Gal (Price, J., et al., Lineage analysis in the vertebrate nervous system by retrovirus-mediated gene transfer, Proc. Natl. Acad. Sci.84, 156-160(1987)). […] Both IC50 values were obtained by determining the density of tumor cells and mat cells by visual inspection and enumeration of cells per colony and the number of colonies under the microscope. The therapeutic index of the compound was quantitatively expressed as the ratio of mIC50/tIC50, with values greater than one indicative of tumor target specificity.

[2] = biological target: T1, farnesyl protein transferase (FPT) (Rattus norvegicus, UniProt Q02293+Q04631); test: In vitro enzyme assay: inhibition of farnesyl protein transferase; assay type: biochemical
T1 construct: were partially purified from rat brain by ammonium sulfate fractionation followed by Q-Sepharose; from tissue; host or cells: rat brain
Method: 1. In vitro enzyme assays: Inhibition of farnesyl protein transferase and geranylgeranyl protein transferase.
Human farnesyl protein transferase was also expressed in E. coli, using cDNA clones encoding both the α and β subunits. […] Two forms of val^12-Ha-Ras protein were prepared as substrates for these enzymes, differing in their carboxy terminal sequence. One form terminated in cysteine-valine-leucine-serine (Ras-CVLS) the other in cystein-valine-leucine-leucine (Ras-CVLL). Ras-CVLS is a substrate for the farnesyl protein transferase while Ras-CVLL is a substrate for geranylgeranyl protein transferase I. The cDNAs encoding these proteins were constructed so that the proteins contain an amino-terminal extension of 6 histidine residues. Both proteins were expressed in Escherichia coli and purified using metal chelate affinity chromatography. The radiolabelled isoprenyl pyrophosphate substrates, [^3H]farnesyl pyrophosphate and [^3H]geranylgeranyl pyrophosphate, were purchased from DuPont/New England Nuclear.
The reaction was allowed to proceed for 30 minutes at room temperature and then stopped with 0.5 ml of 4% sodium dodecyl sulfate (SDS) followed by 0.5 ml of cold 30% trichloracetic acid (TCA). Samples were allowed to sit on ice for 45 minutes and precipitated Ras protein was then collected on GF/C filter paper mats using a Brandel cell harvester. […] Percent inhibition was calculated relative to the DMSO vehicle control.

[3] = test system: Normal human HEPM fibroblasts; test: Cell Mat assay: inhibition of normal cell growth; assay type: cell-based; conditions: mIC50, normal cell monolayer
Method: as §1

[4] = Ras-CVLS farnesylation, partially purified rat brain FPT, read-out: FPT IC50

Row | Compound | IC50 [2, 4] | also measured
1 | CCOC(=O)N1CCC(=C2c3ccc(Cl)cc3CCc3ccc[n+]([O-])c32)CC1 [Compound 515.00, Ethyl 4-(8-chloro-5,6-dihydro-11H-benzo[5,6]cyclohepta[1,2-B]pyridin-11-ylidene)-1-piperidinecarboxylate N-oxide] | 37.6 µM | selective antiproliferative activity against Ras-transformed cells versus normal cells [1]: little; IC50 [1]: 75 µM; IC50 [3]: > 100 µM
2 | CCOC(=O)N1CCC(F)(C2c3ccc(Cl)cc3CCc3cccnc32)CC1 (stereo not drawn) [Compound 520.00] | 10.4 µM | 
3 | CCOC(=O)N1CCC(=C2c3ccc(Br)cc3CCc3cccnc32)CC1 [Compound 540.00] | 7 µM | 
4 | CCOC(=O)N1CCC(=C2c3ccc(Cl)cc3CCc3cc(C)cnc32)CC1 [Compound 545.00] | 7.1 µM | 
5 | CCOC(=O)N1CCC(=C2c3cc(Cl)c(Cl)cc3CCc3cccnc32)CC1 [Compound 555.00] | 37.8 µM | 
6 | COC(=O)N1CCC(=C2c3ccc(Cl)cc3CCc3cccnc32)CC1 [Compound 560.00] | 17.6 µM | 
7 | O=C(OCc1ccccc1)N1CCC(=C2c3ccc(Cl)cc3CCc3cccnc32)CC1 [Compound 570.00] | 8 µM | 
8 | CCCCCCOC(=O)N1CCC(=C2c3ccc(Cl)cc3CCc3cccnc32)CC1 [Compound 590.00] | 80 µM | 
9 | CCOC(=O)N1CCC(=C2c3ccc(Cl)cc3CCc3c(Cl)ccnc32)CC1 [Compound 596.00] | 10.5 µM | 
10 | CCOC(=O)N1CCN([C@@H]2c3ccc(Cl)cc3CCc3cccnc32)CC1 [Compound 602.00, (+) Ethyl 4-(8-chloro-6,11-dihydro-11H-benzo[5,6]-cyclohepta[1,2-b]pyridin-11(R)-yl)-1-piperazine Carboxylate] | 34.1 µM | 
11 | CCOC(=O)N1CCN([C@H]2c3ccc(Cl)cc3CCc3cccnc32)CC1 [Compound 604.00, (−) Ethyl 4-(8-chloro-6,11-dihydro-11H-benzo[5,6]-cyclohepta[1,2-b]pyridin-11(S)-yl)-1-piperazinecarboxylate] | 10.5 µM | 
12 | O=C(OCc1ccccc1)N1CCN(C2c3ccc(Cl)cc3CCc3cccnc32)CC1 (stereo not drawn) [Compound 614.00, Phenylmethyl 4-(8-chloro-6,11-dihydro-5H-benzo[5,6]-cyclohepta[1,2-b]pyridin-11-yl)-1-piperazinecarboxylate] | > 20 µM | selective antiproliferative activity against Ras-transformed cells versus normal cells [1]: little; IC50 ([1]; Homo sapiens): 50 µM; IC50 ([3]; Homo sapiens, Fibroblast): > 50 µM
13 | CCOC(=O)N1CCC(C2c3cc(CC)c(Cl)cc3C=Cc3cccnc32)CC1 (stereo not drawn) [Compound 622.00, 8-chloro-11-(1-ethoxycarbonyl-4-piperidinyl)-9-ethyl-11H-benzo[5,6]cyclohepta[1,2-b]pyridine] | 10.5 µM | 
14 | CCOC(=O)N1CCC(C2c3ccc(Cl)cc3C=Cc3c(Cl)ccnc32)CC1 (stereo not drawn) [Compound 636.00] | 7.4 µM | 
15 | CCOC(=O)N1CCC(=C2c3ccc(Cl)cc3CCc3cc(Br)cnc32)CC1 [Compound 642.00] | 2.17 µM | selective antiproliferative activity against Ras-transformed cells versus normal cells [1]: little; IC50 ([1]; Homo sapiens): 50 µM; IC50 ([3]; Homo sapiens, Fibroblast): > 50 µM
16 | O=C(Oc1cccnc1)N1CCC(=C2c3ccc(Cl)cc3CCc3c(Cl)ccnc32)CC1 [Compound 644.00, 3-pyridyl 4-(4,8-dichloro-5,6-dihydro-11H-benzo[5,6]cyclohepta[1,2-b]pyridin-11-ylidene)-1-piperidine Carboxylate] | 1.03 µM | 
17 | CCOC(=O)N1CCC(=C2c3ccc(Cl)cc3CCc3c(O)ccnc32)CC1 [Compound 646.00, Ethyl 4-[4-hydroxy-8-chloro-5,6-dihydro-11H-benzo[5,6]cyclohepta[1,2-b]pyridin-11-ylidene]-1-piperidine Carboxylate] |  | inhibition at 15 µM ([2]; @ 15 μM): 30%
18 | O=C(Oc1cccnc1)N1CCC(=C2c3ccc(Cl)cc3CCc3c(O)ccnc32)CC1 [Compound 648.00, 3-pyridyl 4-[4-hydroxy-8-chloro-5,6-dihydro-11H-benzo[5,6]cyclohepta[1,2-b]pyridin-11-ylidene]-1-piperidine Carboxylate] | 6.7 µM | 
19 | O=C(Oc1cccnc1)N1CCC(=C2c3ccc(Cl)cc3CCc3c(On4nnc5ccccc54)ccnc32)CC1 [Compound 656.00, 3-pyridyl 4-[4-[(1H-benzotriazol-1-yl)oxy]-8-chloro-5,6-dihydro-11H-benzo[5,6]cyclohepta[1,2-b]pyridin-11-ylidene[-1-piperidine Carboxylate] | 0.71 µM | 
20 | CCOC(=O)N1CCC(=C2c3ccc(Cl)cc3CCc3cc(OC)cnc32)CC1 [Compound 658.00, 8-chloro-3-methoxy-11-(1-ethoxycarbonyl-4-piperidylidene)-6,11-dihydro-5H-benzo[5,6]-cyclohepta[1,2-b]pyridine] | 11.5 µM | 
21 | CCOC(=O)N1CCC(=C2c3ccc(Cl)cc3CCc3c2ncc(Br)c3O)CC1 [Compound 660.00, Ethyl 4-[3-bromo-4-hydroxy-8-chloro-5,6-dihydro-11H-benzo[5,6]cyclohepta[1,2-b]pyridin-11-ylidene]-1-piperidine Carboxylate] |  | inhibition at 13 µM ([2]; @ 13 μM): 22%
22 | O=C(Oc1cccnc1)N1CCC(=C2c3ccc(Cl)cc3CCc3c2ncc(Br)c3O)CC1 [Compound 662.00, 3-pyridyl 4-[3-bromo-4-hydroxy-8-chloro-5,6-dihydro-11H-benzo[5,6]cyclohepta[1,2-b]pyridin-11-ylidene]-1-piperidine Carboxylate] | 3.8 µM | 
23 | O=C(Oc1cccnc1)N1CCC(=C2c3ccc(Cl)cc3C=Cc3cccnc32)CC1 [Compound 664.00] | 1.46 µM | 
24 | CCOC(=O)N1CCC(=C2c3ccc(Cl)cc3C=Cc3cccnc32)CC1 [Compound 666.00] | 10.8 µM | 
25 | O=C(Oc1ccc[n+]([O-])c1)N1CCN(C2c3ccc(Cl)cc3CCc3cccnc32)CC1 (stereo not drawn) [Compound 800.00] | 3.7 µM | 
26 | O=C(Oc1ccc[n+]([O-])c1)N1CCN(C2c3ccc(Cl)cc3CCc3cc(Br)cnc32)CC1 (stereo not drawn) [Compound 801.00] |  | IC50 [2]: 0.28 µM
27 | CN1CCC(OC(=O)N2CCN(C3c4ccc(Cl)cc4CCc4cccnc43)CC2)CC1 (stereo not drawn) [Compound 802.00] | > 1.3 µM | FPT inhibition, second line of the FPT IC50 (μM) column ([2]; (1.3), the values are: FPT inhibition at 1.3 µM): 35%
28 | CN1CCCC(OC(=O)N2CCN(C3c4ccc(Cl)cc4CCc4cccnc43)CC2)C1 (stereo not drawn) [Compound 804.00] | 2.1 µM | 
29 | CN1CCCC(OC(=O)N2CCN(C3c4ccc(Cl)cc4CCc4cc(Br)cnc43)CC2)C1 (stereo not drawn) [Compound 805.00] | 0.3 µM | 
30 | O=C(Oc1ccccc1)N1CCN(C2c3ccc(Cl)cc3C=Cc3cccnc32)CC1 (stereo not drawn) [Example 32] |  | IC50 ([1]; Homo sapiens): 25 µM; IC50 [2]: 0.88 µM; IC50 ([3]; Homo sapiens, Fibroblast): 25 µM
